In ChEMBL document CHEMBL1201862, “PubChem BioAssay data set” (2004):
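Exposure lasted 48 hours, with cells grown in 96-well plates and compounds tested at five concentrations. At the GI50, growth is halved.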 Activity calls are given as the source filed them. Cut-off read from the data, not from the text of the source: active = GI50 up to about 1.1 µM and inactive = higher.

Assays:
Assay in all cases: DTP human tumour cell line panel, 48 h
A498 = tested on: A498
HL-60 = tested on: HL-60
HT-29 = tested on: HT-29
IGROV-1 = tested on: IGROV-1
K562 = tested on: K562
KM12 = tested on: KM12
MDA-N = tested on: MDA-N
Malme-3M = tested on: Malme-3M
OVCAR-4 = tested on: OVCAR-4
OVCAR-5 = tested on: OVCAR-5
RPMI-8226 = tested on: RPMI-8226
SF-539 = tested on: SF-539
SK-MEL-28 = tested on: SK-MEL-28
SK-MEL-5 = tested on: SK-MEL-5
SNB-19 = tested on: SNB-19
SNB-75 = tested on: SNB-75
T47D = tested on: T47D
TK-10 = tested on: TK-10
U-251 = tested on: U-251
UACC-62 = tested on: UACC-62

Structure (SMILES)	GI50 (A498)	GI50 (HL-60)	GI50 (HT-29)	GI50 (IGROV-1)	GI50 (K562)	GI50 (KM12)	GI50 (MDA-N)	GI50 (Malme-3M)	GI50 (OVCAR-4)	GI50 (OVCAR-5)	GI50 (RPMI-8226)	GI50 (SF-539)	GI50 (SK-MEL-28)	GI50 (SK-MEL-5)	GI50 (SNB-19)	GI50 (SNB-75)	GI50 (T47D)	GI50 (TK-10)	GI50 (U-251)	GI50 (UACC-62)
CC1=C2c3ccccc3N(S(=O)(=O)c3ccccc3)[C@H]2[C@H](C(=O)N2C3CC4CC[C@@]3(CS2(=O)=O)C4(C)C)CC1 (stereo partly drawn)	87900 nM (inactive)	641 nM (active)	17600 nM (inactive)	59400 nM (inactive)	7240 nM (inactive)	49500 nM (inactive)	> 10000 nM (inactive)	28900 nM (inactive)	64000 nM (inactive)	> 100000 nM (inactive)	334 nM (active)	415 nM (active)	> 100000 nM (inactive)	22800 nM (inactive)	24900 nM (inactive)	635 nM (active)	10600 nM (inactive)	43900 nM (inactive)	6590 nM (inactive)	9550 nM (inactive)
O=C1c2ccccc2C(=O)c2c(/C=C\N3CCCCC3)ccnc21	8990 nM (inactive)	3010 nM (inactive)	5570 nM (inactive)	11100 nM (inactive)	551 nM (active)	3970 nM (inactive)	383 nM (active)	661 nM (active)	9570 nM (inactive)	5380 nM (inactive)	2290 nM (inactive)	3120 nM (inactive)	1110 nM (active)	420 nM (active)	4910 nM (inactive)	2010 nM (inactive)	2970 nM (inactive)	15200 nM (inactive)	2990 nM (inactive)	659 nM (active)
O=C(CNc1ccc(Cl)cc1)Nn1c(-c2ccccc2)nc2ccccc2c1=O	14900 nM (inactive)	6650 nM (inactive)	6270 nM (inactive)	3840 nM (inactive)	3350 nM (inactive)	10800 nM (inactive)	7380 nM (inactive)	6550 nM (inactive)	7500 nM (inactive)	14700 nM (inactive)	4470 nM (inactive)	4370 nM (inactive)	6640 nM (inactive)	2840 nM (inactive)	10800 nM (inactive)	10100 nM (inactive)	4830 nM (inactive)	16400 nM (inactive)	3470 nM (inactive)	3890 nM (inactive)
OCCOCCO[P+]1(OCCOCCO)n2c3ccc2C(c2ccccc2)=C2C=CC(=N2)C(c2ccccc2)=c2ccc(n21)=C(c1ccccc1)C1=NC(=C3c2ccccc2)C=C1	8570 nM (inactive)	23.5 nM (active)	84.5 nM (active)	26.1 nM (active)	< 18.8 nM (active)	33.1 nM (active)	31.4 nM (active)	119 nM (active)	209 nM (active)	525 nM (active)	14.2 nM (active)	188 nM (active)	63.1 nM (active)	50.6 nM (active)	< 10 nM (active)	49.1 nM (active)	40 nM (active)	426 nM (active)		61.8 nM (active)
CC(=O)O[C@H]1C(=O)[C@@]2(C)[C@H]([C@H](OC(=O)c3ccccc3)[C@]3(O)C[C@H](OC(=O)[C@H](O)[C@@H](NC(=O)C(C)(O)C(C)O)c4ccccc4)C(C)=C1C3(C)C)[C@]1(OC(C)=O)CO[C@@H]1C[C@@H]2O (stereo partly drawn)	9440 nM (inactive)	85.9 nM (active)	128 nM (active)	205 nM (active)	172 nM (active)	167 nM (active)	30.8 nM (active)	226 nM (active)	13200 nM (inactive)	687 nM (active)	86.5 nM (active)	112 nM (active)		207 nM (active)	796 nM (active)	51.4 nM (active)	929 nM (active)	5690 nM (inactive)	239 nM (active)	242 nM (active)
